This passage reports IC50 results from ChEMBL document CHEMBL3813683, “Design, synthesis and anti-cancer activity evaluation of podophyllotoxin-norcantharidin hybrid drugs” (Bioorg Med Chem Lett, 2016).

Each structure is given as a SMILES string.

In general, IC50 refers to the point on the concentration scale where inhibition reaches its midpoint. Lower therefore signals greater potency in that assay.

In one assay the test system is MCF7. Put plainly: Cytotoxicity against human MCF7 cells after 36 hrs by MTT assay. In kind it is functional, cell-based. Particulars: MCF7, 36 h.
The next assay relates to A549. In words: Cytotoxicity against human A549 cells after 36 hrs by MTT assay. It counts as functional, cell-based. To be noted: A549, 36 h. (Tetrazolium assays rely on reduction of a dye to a coloured formazan, in cell work by metabolically active cells.)
The nature of assay [1]: Cytotoxicity against HEK293T cells after 36 hrs by MTT assay. It counts as cell-based. To be noted: Homo sapiens, HEK-293T.
The test system of the next assay is HeLa. In words: Cytotoxicity against human HeLa cells after 36 hrs by MTT assay. In kind it is functional, cell-based.

Regarding `COc1cc(C2c3cc4c(cc3[C@H](OC(=O)[C@@H](C)N3C(=O)c5ccccc5C3=O)[C@H]3COC(=O)[C@H]23)OCO4)cc(OC)c1OC` (some centres not stated), the IC50 in the assay with MCF7 is 8.29 µM; in the assay with A549, 8.08 µM; in assay [1], 59.3 µM; in the assay on HeLa it was 11.8 µM.
The like results for `COc1cc(C2c3cc4c(cc3[C@H](OC(=O)C(C)N3C(=O)C5CCCCC5C3=O)[C@H]3COC(=O)[C@H]23)OCO4)cc(OC)c1OC` (some centres not stated) were, in that order, 1.87 µM, 2.34 µM, 90.7 µM and 2.01 µM.
The corresponding values for `COc1cc(C2c3cc4c(cc3[C@H](OC(=O)[C@@H](C)N3C(=O)C5C6CCC(O6)C5C3=O)[C@H]3COC(=O)[C@H]23)OCO4)cc(OC)c1OC` (some centres not stated) are 1.17 µM, 2 µM, 80.8 µM and 1.14 µM.
The like results for `COc1cc(C2c3cc4c(cc3[C@H](OC(=O)C(C)N3C(=O)c5ccccc5C3=O)[C@H]3COC(=O)[C@H]23)OCO4)cc(OC)c1OC` (some centres not stated) were, in that order, 16.8 µM, 5.37 µM, 51.3 µM and 17.2 µM.
For `COc1cc(C2c3cc4c(cc3[C@H](OC(=O)[C@@H](Cc3ccccc3)N3C(=O)C5C6CCC(O6)C5C3=O)[C@H]3COC(=O)[C@H]23)OCO4)cc(OC)c1OC` (some centres not stated), the IC50 in the assay on MCF7 stood at 2.75 µM; with A549, 4.32 µM; in assay [1], 67.7 µM; in the assay with HeLa it was 3.09 µM.
The corresponding values for `COc1cc(C2c3cc4c(cc3[C@H](OC(=O)C(C)N3C(=O)C5C6CCC(O6)C5C3=O)[C@H]3COC(=O)[C@H]23)OCO4)cc(OC)c1OC` (some centres not stated) are 1.74 µM, 1.91 µM, 53.2 µM and 1.86 µM.
Regarding `COc1cc(C2c3cc4c(cc3[C@H](OC(=O)[C@@H](Cc3ccccc3)N3C(=O)c5ccccc5C3=O)[C@H]3COC(=O)[C@H]23)OCO4)cc(OC)c1OC` (some centres not stated), the IC50 in the assay with MCF7 was 25.5 µM; in the assay on A549, 7.28 µM; in assay [1], 50.9 µM; with HeLa it was 18.7 µM.
The corresponding values for `COc1cc(C2c3cc4c(cc3[C@H](OC(=O)[C@H](Cc3ccccc3)N3C(=O)C5CCCCC5C3=O)[C@H]3COC(=O)[C@H]23)OCO4)cc(OC)c1OC` (some centres not stated) are 8.24 µM, 4.92 µM, 42.6 µM and 8.28 µM.
The like results for `COc1cc(C2c3cc4c(cc3[C@H](OC(=O)[C@@H](C)N3C(=O)C5CCCCC5C3=O)[C@H]3COC(=O)[C@H]23)OCO4)cc(OC)c1OC` (some centres not stated) were, in that order, 2.51 µM, 2.11 µM, 54.5 µM and 2.15 µM.
The like results for `COc1cc(C2c3cc4c(cc3[C@H](OC(=O)C(Cc3ccccc3)N3C(=O)C5CCCCC5C3=O)[C@H]3COC(=O)[C@H]23)OCO4)cc(OC)c1OC` (some centres not stated) were, in that order, 1.17 µM, 1.72 µM, 61.5 µM and 2.22 µM.
For `COc1cc(C2c3cc4c(cc3[C@H](OC(=O)[C@H](Cc3ccccc3)N3C(=O)C5C6CCC(O6)C5C3=O)[C@H]3COC(=O)[C@H]23)OCO4)cc(OC)c1OC` (some centres not stated), the IC50 turned out to be 6.53 µM in the assay with MCF7, 3.69 µM in the assay on A549, 70.3 µM in assay [1] and 8.79 µM in the assay with HeLa.
The corresponding values for `COc1cc(C2c3cc4c(cc3[C@H](OC(=O)C(Cc3ccccc3)N3C(=O)c5ccccc5C3=O)[C@H]3COC(=O)[C@H]23)OCO4)cc(OC)c1OC` (some centres not stated) are 6.41 µM, 4.16 µM, 65.9 µM and 7.12 µM.
The corresponding values for `COc1cc([C@@H]2c3cc4c(cc3[C@@H](O[C@@H]3O[C@@H]5CO[C@@H](C)O[C@H]5[C@H](O)[C@H]3O)[C@H]3COC(=O)[C@H]23)OCO4)cc(OC)c1O` [ETOPOSIDE] are 1.74 µM, 8.01 µM, 11.5 µM and 4.39 µM.
The like results for `COc1cc(C2c3cc4c(cc3[C@H](OC(=O)[C@@H](Cc3ccccc3)N3C(=O)C5CCCCC5C3=O)[C@H]3COC(=O)[C@H]23)OCO4)cc(OC)c1OC` (some centres not stated) were, in that order, 3.73 µM, 3.89 µM, 63.4 µM and 3.89 µM.
As to `COc1cc(C2c3cc4c(cc3[C@H](OC(=O)[C@H](Cc3ccccc3)N3C(=O)c5ccccc5C3=O)[C@H]3COC(=O)[C@H]23)OCO4)cc(OC)c1OC` (some centres not stated), the IC50 with MCF7 worked out at 10.1 µM; with A549 it was 8.11 µM; in assay [1], 54.8 µM; in the assay with HeLa, 12.5 µM.
The corresponding values for `COc1cc(C2c3cc4c(cc3[C@H](OC(=O)[C@H](C)N3C(=O)C5C6CCC(O6)C5C3=O)[C@H]3COC(=O)[C@H]23)OCO4)cc(OC)c1OC` (some centres not stated) are 1.22 µM, 1.18 µM, 64.2 µM and 3.02 µM.
As for `COc1cc(C2c3cc4c(cc3[C@H](OC(=O)[C@H](C)N3C(=O)C5CCCCC5C3=O)[C@H]3COC(=O)[C@H]23)OCO4)cc(OC)c1OC` (some centres not stated), the IC50 in the assay on MCF7 worked out at 4.59 µM; in the assay with A549 it was 2.44 µM; in assay [1], 74.2 µM; with HeLa, 5.81 µM.
The corresponding values for `COc1cc(C2c3cc4c(cc3[C@H](OC(=O)[C@H](C)N3C(=O)c5ccccc5C3=O)[C@H]3COC(=O)[C@H]23)OCO4)cc(OC)c1OC` (some centres not stated) are 18.3 µM, 5.89 µM, 88.6 µM and 19 µM.
